Measurements taken from patent US20240261417A1, “SOS1 DEGRADING AGENT AND PREPARATION METHOD THEREFOR AND APPLICATION THEREOF” (SHANGHAI LEADINGTAC PHARMACEUTICAL CO. LTD., priority 2021, published 2024).

Biological target: T1, SOS1 protein (Homo sapiens, UniProt Q07889)
T1 sequence (Q07889 1-1333): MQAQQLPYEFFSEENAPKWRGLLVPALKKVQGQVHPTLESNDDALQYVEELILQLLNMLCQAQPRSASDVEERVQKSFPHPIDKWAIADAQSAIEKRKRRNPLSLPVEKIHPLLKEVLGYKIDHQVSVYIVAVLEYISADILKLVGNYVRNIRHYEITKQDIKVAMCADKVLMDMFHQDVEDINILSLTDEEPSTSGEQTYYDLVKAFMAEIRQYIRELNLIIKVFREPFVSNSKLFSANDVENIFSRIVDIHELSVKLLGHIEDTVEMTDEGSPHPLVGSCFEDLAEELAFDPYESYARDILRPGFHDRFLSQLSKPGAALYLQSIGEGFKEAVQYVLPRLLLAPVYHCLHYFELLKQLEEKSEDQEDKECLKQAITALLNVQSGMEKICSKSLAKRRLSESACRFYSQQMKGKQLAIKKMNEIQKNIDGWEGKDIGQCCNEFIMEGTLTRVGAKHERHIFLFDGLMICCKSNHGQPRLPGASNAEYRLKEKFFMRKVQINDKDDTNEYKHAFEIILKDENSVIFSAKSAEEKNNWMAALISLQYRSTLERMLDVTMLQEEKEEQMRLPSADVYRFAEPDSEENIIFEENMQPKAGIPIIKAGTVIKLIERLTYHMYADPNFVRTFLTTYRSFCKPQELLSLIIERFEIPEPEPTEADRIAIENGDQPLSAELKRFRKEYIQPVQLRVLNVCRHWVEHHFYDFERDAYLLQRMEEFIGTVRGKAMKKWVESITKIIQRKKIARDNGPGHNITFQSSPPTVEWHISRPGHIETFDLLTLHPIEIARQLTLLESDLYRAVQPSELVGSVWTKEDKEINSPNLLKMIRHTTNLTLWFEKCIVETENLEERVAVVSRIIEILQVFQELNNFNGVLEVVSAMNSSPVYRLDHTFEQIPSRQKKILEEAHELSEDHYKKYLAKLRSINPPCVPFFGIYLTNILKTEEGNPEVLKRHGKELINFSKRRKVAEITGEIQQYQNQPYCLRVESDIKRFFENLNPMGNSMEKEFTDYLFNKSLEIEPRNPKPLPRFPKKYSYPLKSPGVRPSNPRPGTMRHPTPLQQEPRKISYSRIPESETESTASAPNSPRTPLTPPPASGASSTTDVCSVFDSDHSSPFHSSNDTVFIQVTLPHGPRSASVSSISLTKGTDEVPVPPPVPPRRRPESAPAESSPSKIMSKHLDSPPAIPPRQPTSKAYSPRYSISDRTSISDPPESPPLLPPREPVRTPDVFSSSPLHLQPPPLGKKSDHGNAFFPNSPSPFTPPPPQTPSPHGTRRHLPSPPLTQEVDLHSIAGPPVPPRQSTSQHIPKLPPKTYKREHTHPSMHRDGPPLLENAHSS
Experiment: SOS1 degradation assay (Western blot), NCI-H358 cells
Assay type: cell-based
Set-up: The degradation of SOS1 by the compounds was investigated on KRAS G12C mutant human non-small cell lung cancer cells NCI-H358; host or cells: NCI-H358 (human cancer cell lines)
Conditions: SOS1 degradation, NCI-H358 cells, 24 h, Western blot; for DC50: read-out: NCI-H358 (G12C) DC50; for Dmax: read-out: NCI-H358 (G12C) Dmax
Summary of the method: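 SOS1 degradation was assessed by densitometry of Western blots, relative to untreated controls, after 24 h compound exposure (0.03–3000 nM final, 37 °C, 5% CO2) of cells seeded at 5×10^5/well. Log concentration–response fitting gave DC50 and Dmax.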

| Structure (SMILES) | DC50 | Dmax |
| --- | --- | --- |
| COc1cc2nc(C)nc(N[C@H](C)c3cccc4c3CCS4(=O)=O)c2cc1[C@H]1CC[C@H](C(=O)N2CCN(CC3CCC4(CC3)CCN(C(=O)c3ccc(Cl)c(N5CCC(=O)NC5=O)c3)CC4)CC2)CC1 [Example 10, 1-(2-chloro-5-(9-((4-((1R,4R)-4-(4-(((R)-1-(1,1-dioxo-2,3-dihydrobenzo[b]thiophen-4-yl)ethyl)amino)-7-methoxy-2-methylquinazolin-6-yl)cyclohexane-1-carbonyl)piperazin-1-yl)methyl)-3-azaspiro[5.5]undecane-3-carbonyl)phenyl)dihydropyrimidine-2,4(1H,3H)-dione] | < 50 nM | 50 to 80% |
| COc1cc2nc(C)nc(N[C@H](C)c3cc(N)cc(C(F)(F)F)c3)c2cc1[C@H]1CC[C@H](C(=O)N2CCN(CCOCC3CCN(C(=O)c4ccc(Cl)c(N5CCC(=O)NC5=O)c4)CC3)CC2)CC1 [Example 33, 1-(5-(4-((2-(4-((1R,4R)-4-(4-(((R)-1-(3-amino-5-(trifluoromethyl)phenyl)ethyl)amino)-7-methoxy-2-methylquinazolin-6-yl)cyclohexane-1-carbonyl)piperazin-1-yl)ethoxy)methyl)piperidine-1-carbonyl)-2-chlorophenyl)dihydropyrimidine-2,4(1H,3H)-dione] | < 50 nM | 80 to 100% |
| CNCc1ccccc1-c1csc([C@@H](C)Nc2nc(C)nc3cc(OC)c([C@H]4CC[C@H](C(=O)N5CCN(CC6CCC7(CC6)CCN(C(=O)c6ccc(OC)c(N8CCC(=O)NC8=O)c6)CC7)CC5)CC4)cc23)c1 [Example 73, 1-(2-methoxy-5-(9-((4-((1R,4R)-4-(7-methoxy-2-methyl-4-(((R)-1-(4-(2-((methylamino)methyl)phenyl)thien-2-yl)ethyl)amino)quinazolin-6-yl)cyclohexane-1-carbonyl)piperazin-1-yl)methyl)-3-azaspiro[5.5]undecane-3-carbonyl)phenyl)dihydropyrimidine-2,4(1H,3H)-dione] | < 50 nM | 80 to 100% |
| COc1cc2nc(C)nc(N[C@H](C)c3cc(N)cc(C(F)(F)F)c3)c2cc1[C@H]1CC[C@H](C(=O)N2CCC(CCOCC3CCN(C(=O)c4ccc(Cl)c(N5CCC(=O)NC5=O)c4)CC3)CC2)CC1 [Example 19, 1-(5-(4-((2-(1-((1R,4R)-4-(4-(((R)-1-(3-amino-5-(trifluoromethyl)phenyl)ethyl)amino)-7-methoxy-2-methylquinazolin-6-yl)cyclohexane-1-carbonyl)piperidin-4-yl)ethoxy)methyl)piperidine-1-carbonyl)-2-chlorophenyl)dihydropyrimidine-2,4(1H,3H)-dione] | 100 to 500 nM | 50 to 80% |

Results, then the compound that gave them:

| DC50 | Dmax | Structure (SMILES) |
| --- | --- | --- |
| < 50 nM | 80 to 100% | COc1cc2nc(C)nc(N[C@H](C)c3cc(N)cc(C(F)(F)F)c3)c2cc1[C@H]1CC[C@H](C(=O)N2CCN(CCC3CCC4(CC3)CCN(C(=O)c3ccc(Cl)c(N5CCC(=O)NC5=O)c3)CC4)CC2)CC1 [Example 1, 1-(5-(9-(2-(4-((1R,4R)-4-(4-(((R)-1-(3-amino-5-(trifluoromethyl)phenyl)ethyl)amino)-7-methoxy-2-methylquinazolin-6-yl)cyclohexane-1-carbonyl)piperazin-1-yl)ethyl)-3-azaspiro[5.5]undecane-3-carbonyl)-2-chlorophenyl)dihydropyrimidine-2,4(1H,3H)-dione] |
| < 50 nM | 80 to 100% | COc1cc2nc(C)nc(N[C@H](C)c3cc(N)cc(C(F)(F)F)c3)c2cc1[C@H]1CC[C@H](C(=O)N2CCN(CC3CCC4(CC3)CCN(C(=O)c3ccc(Cl)c(N5CCC(=O)NC5=O)c3)CC4)CC2)CC1 [Example 2, 1-(5-(9-((4-((1R,4R)-4-(4-(((R)-1-(3-amino-5-(trifluoromethyl)phenyl)ethyl)amino)-7-methoxy-2-methylquinazolin-6-yl)cyclohexane-1-carbonyl)piperazin-1-yl)methyl)-3-azaspiro[5.5]undecane-3-carbonyl)-2-chlorophenyl)dihydropyrimidine-2,4(1H,3H)-dione] |
